Source: ChEMBL document CHEMBL4017480, “Discovery and optimization of selective FGFR4 inhibitors via scaffold hopping” (Bioorg Med Chem Lett, 2017)

How the values were obtained:
[1] = target: T1, Cytochrome P450 1A2 (Homo sapiens, UniProt P05177); experiment: Inhibition of CYP1A2 in human liver microsomes using phenacetin as substrate pretreated for 10 mins followed by substrate addition measured after 10 mins in presence of NADPH by LC-MS/MS method; format: ADME
T1 sequence (P05177 whole entry): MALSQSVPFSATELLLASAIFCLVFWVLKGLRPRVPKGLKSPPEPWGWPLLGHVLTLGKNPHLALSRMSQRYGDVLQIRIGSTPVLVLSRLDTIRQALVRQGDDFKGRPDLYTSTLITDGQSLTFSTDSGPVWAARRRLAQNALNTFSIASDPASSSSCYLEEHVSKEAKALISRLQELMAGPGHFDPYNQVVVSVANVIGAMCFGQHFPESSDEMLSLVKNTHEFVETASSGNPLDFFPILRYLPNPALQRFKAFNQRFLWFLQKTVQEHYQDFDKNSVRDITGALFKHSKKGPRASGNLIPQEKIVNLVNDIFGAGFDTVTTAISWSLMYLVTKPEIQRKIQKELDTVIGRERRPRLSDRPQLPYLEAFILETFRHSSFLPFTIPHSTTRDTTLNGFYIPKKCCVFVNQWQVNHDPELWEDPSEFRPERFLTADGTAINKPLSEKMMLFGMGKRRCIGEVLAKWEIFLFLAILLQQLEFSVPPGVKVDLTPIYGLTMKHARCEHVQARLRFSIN

[2] = target: Tyrosine-protein kinase BTK (Homo sapiens, UniProt Q06187); experiment: Inhibition of human BTK using KVEKIGEGTYGVVYK as substrate measured after 120 mins in presence of [gamma33P]ATP by P81 ion exchange chromatographic method
[3] = Stability in human plasma assessed as compound remaining at 2 uM measured after 2 hrs by LC-MS/MS analysis; format: ADME, cell-free; settings: read-out: Stability
[4] = Stability in mouse plasma assessed as compound remaining at 2 uM measured after 2 hrs by LC-MS/MS analysis; format: ADME, cell-free; settings: read-out: Stability
[5] = Apparent permeability from apical to basolateral side in MDCK2-MDR1 cells at 2 uM after 2.5 hrs LC-MS/MS analysis; format: ADME, cell-based, Canis lupus familiaris; settings: dog, MDCK-MDR1
[6] = target: T2, Tyrosine-protein kinase ITK/TSK (Homo sapiens, UniProt Q08881); experiment: Inhibition of human ITK using myelin basic protein as substrate measured after 120 mins in presence of [gamma33P]ATP by P81 ion exchange chromatographic method
T2 sequence (Q08881 whole entry): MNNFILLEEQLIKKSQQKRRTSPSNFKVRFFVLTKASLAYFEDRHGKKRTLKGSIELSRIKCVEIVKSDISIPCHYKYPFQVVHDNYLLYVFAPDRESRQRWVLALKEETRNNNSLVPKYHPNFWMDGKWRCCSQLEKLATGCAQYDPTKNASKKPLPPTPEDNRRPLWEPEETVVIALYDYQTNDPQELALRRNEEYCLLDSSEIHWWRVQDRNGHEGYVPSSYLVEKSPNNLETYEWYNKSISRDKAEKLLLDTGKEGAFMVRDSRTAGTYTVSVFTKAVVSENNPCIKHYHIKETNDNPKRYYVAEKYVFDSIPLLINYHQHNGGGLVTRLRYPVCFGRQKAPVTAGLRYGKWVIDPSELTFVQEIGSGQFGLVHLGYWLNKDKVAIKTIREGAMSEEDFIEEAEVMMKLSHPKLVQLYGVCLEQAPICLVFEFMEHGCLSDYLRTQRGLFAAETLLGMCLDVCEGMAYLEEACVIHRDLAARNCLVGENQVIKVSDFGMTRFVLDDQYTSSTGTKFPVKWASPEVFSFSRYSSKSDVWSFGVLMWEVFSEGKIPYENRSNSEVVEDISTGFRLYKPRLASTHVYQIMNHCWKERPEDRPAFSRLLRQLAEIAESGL

[7] = target: T3, Tyrosine-protein kinase JAK3 (Homo sapiens) (UniProt P52333); experiment: Inhibition of human JAK3 at 10 uM using GEEEEYFELVKKKK as substrate measured after 120 mins in presence of [gamma33P]ATP by P81 ion exchange chromatographic method relative to control
T3 sequence (whole entry): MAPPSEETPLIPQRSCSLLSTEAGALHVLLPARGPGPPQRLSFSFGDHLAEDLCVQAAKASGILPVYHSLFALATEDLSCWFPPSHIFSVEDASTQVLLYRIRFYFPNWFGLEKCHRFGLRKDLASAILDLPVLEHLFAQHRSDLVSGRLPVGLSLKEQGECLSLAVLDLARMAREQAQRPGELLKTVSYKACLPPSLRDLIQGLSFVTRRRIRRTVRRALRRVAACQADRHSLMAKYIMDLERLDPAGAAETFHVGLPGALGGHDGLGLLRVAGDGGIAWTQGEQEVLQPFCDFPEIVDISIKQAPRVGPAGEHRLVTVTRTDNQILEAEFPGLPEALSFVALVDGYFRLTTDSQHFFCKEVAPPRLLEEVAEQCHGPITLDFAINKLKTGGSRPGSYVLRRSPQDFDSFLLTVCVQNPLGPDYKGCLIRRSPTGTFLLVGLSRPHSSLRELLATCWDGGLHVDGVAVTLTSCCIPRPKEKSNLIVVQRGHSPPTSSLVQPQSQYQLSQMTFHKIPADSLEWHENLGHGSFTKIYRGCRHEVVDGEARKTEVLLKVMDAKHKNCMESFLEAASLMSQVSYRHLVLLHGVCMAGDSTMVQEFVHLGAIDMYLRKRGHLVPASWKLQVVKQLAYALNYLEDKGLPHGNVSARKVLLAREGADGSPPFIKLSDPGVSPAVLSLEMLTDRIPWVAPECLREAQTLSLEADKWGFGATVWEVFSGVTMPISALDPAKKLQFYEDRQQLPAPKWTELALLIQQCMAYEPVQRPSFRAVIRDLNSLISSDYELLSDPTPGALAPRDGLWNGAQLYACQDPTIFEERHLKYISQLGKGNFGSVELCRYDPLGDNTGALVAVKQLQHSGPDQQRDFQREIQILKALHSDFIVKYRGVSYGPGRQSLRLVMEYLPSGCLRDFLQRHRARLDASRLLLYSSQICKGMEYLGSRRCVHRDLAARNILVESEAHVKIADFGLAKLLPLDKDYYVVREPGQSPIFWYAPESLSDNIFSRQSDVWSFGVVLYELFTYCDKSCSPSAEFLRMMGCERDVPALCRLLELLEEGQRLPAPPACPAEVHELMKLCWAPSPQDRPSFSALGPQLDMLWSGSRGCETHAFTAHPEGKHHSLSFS

[8] = target: Cytochrome P450 2C19 (Homo sapiens, UniProt P33261); experiment: Inhibition of CYP2C19 in human liver microsomes using S-mephenytoin as substrate pretreated for 10 mins followed by substrate addition measured after 10 mins in presence of NADPH by LC-MS/MS method; format: ADME
[9] = target: Vascular endothelial growth factor receptor 2 (Homo sapiens, UniProt P35968); experiment: Inhibition of human VEGFR2 using poly[Glu:Tyr] (4:1) as substrate measured after 120 mins in presence of [gamma33P]ATP by P81 ion exchange chromatographic method
Sequence of Vascular endothelial growth factor receptor 2 (P35968 whole entry): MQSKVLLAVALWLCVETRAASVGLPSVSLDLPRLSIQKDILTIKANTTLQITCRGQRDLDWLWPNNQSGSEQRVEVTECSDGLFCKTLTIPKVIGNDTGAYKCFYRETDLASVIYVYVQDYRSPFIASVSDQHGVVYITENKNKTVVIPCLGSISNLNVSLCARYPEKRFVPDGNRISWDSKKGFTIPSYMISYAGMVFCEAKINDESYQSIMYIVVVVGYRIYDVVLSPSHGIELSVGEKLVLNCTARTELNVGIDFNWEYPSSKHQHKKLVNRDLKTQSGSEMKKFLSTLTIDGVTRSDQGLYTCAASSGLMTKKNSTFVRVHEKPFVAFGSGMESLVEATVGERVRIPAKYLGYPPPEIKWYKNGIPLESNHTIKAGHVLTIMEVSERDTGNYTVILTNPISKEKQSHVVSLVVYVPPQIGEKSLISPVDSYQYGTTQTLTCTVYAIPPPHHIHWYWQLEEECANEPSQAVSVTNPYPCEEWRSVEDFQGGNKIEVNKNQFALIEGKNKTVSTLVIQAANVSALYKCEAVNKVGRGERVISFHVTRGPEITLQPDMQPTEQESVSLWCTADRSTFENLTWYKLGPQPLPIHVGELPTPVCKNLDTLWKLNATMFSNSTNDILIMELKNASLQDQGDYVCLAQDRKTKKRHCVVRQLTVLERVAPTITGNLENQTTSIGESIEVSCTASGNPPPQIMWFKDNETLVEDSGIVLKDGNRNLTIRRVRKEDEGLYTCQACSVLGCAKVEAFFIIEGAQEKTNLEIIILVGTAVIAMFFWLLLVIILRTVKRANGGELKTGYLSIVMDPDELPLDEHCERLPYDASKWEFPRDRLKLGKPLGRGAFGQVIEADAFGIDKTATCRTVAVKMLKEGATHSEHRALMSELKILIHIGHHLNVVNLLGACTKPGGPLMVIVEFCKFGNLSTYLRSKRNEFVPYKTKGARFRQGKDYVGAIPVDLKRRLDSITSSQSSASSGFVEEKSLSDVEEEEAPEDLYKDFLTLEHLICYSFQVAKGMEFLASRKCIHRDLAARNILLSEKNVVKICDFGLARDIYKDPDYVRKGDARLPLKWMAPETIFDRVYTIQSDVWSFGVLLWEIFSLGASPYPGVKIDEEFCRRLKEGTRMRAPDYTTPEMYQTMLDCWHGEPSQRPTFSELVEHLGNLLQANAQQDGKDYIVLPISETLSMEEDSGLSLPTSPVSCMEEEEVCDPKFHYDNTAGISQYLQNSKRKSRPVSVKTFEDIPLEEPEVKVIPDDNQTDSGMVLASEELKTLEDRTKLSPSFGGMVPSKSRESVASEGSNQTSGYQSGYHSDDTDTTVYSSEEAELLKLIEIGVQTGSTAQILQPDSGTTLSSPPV

Sequence of Tyrosine-protein kinase BTK (Q06187 whole entry): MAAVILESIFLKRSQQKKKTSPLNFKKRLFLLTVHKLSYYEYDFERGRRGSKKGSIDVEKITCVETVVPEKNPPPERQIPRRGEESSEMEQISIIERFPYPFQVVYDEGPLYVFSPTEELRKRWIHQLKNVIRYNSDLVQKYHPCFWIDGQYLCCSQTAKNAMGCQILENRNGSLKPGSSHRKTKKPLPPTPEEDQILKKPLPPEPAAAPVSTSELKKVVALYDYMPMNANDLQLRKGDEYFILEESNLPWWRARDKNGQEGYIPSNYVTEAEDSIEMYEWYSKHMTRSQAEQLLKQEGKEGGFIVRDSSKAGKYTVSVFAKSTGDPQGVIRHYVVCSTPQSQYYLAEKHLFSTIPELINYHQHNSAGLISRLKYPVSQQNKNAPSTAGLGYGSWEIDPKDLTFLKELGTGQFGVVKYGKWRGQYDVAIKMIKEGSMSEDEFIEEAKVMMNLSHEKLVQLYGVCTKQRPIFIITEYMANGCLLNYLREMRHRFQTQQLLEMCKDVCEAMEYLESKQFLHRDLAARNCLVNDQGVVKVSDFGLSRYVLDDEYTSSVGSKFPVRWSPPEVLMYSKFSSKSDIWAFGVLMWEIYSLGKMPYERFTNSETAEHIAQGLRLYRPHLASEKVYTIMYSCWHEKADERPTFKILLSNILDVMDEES
Sequence of Cytochrome P450 2C19 (P33261 whole entry): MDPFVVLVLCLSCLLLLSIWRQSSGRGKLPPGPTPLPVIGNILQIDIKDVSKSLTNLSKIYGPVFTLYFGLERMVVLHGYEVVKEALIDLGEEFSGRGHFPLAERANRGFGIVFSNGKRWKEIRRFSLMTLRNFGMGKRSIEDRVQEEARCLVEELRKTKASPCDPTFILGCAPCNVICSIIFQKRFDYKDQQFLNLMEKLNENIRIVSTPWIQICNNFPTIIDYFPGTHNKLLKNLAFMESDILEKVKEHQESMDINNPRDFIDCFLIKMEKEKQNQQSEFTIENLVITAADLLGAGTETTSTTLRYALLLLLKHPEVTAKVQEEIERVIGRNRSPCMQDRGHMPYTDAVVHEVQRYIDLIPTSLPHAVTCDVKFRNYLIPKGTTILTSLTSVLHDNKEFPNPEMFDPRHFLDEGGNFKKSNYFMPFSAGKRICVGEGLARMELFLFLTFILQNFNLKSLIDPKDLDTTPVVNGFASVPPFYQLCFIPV

IC50 [1] [µM]	IC50 [2] [µM]	remaining at 2 h, 2 µM [3] [%]	remaining at 2 h, 2 µM [4] [%]	Papp A→B at 2.5 h, 2 µM [5] [×10⁻⁶ cm/s]	IC50 [6] [µM]	inhibition [7] [%]	IC50 [8] [µM]	IC50 [9] [µM]	SMILES
15.9	> 10	71	63	0.35	> 10	12	1.7	> 10	C=CC(=O)Nc1cccc(C)c1Nc1ncc2cc(-c3c(Cl)c(OC)cc(OC)c3Cl)ccc2n1
> 50	> 10	48	13	8.6	> 10	7	1.5	> 10	C=CC(=O)Nc1cccc(C)c1Nc1ncc(OCc2c(F)c(OC)cc(OC)c2F)cn1
> 50	> 10	92	97	7.3	> 10	9	19.8	> 10	C=CC(=O)N[C@H]1COC[C@H]1Nc1ncc(OCc2c(F)c(OC)cc(OC)c2F)cn1
